Laboratory results as given in patent US20220193029A1, “BRYOSTATIN COMPOUNDS FOR ENHANCEMENT OF IMMUNOTHERAPY” (priority 2019, published 2022).

Key:
PKCα = molecular target: T1, PKCα (Homo sapiens, UniProt P17252); test: cell-free competitive PKC binding assay with [3H]-phorbol dibutyrate; settings: competition with [3H]-PDBu, recombinant human PKC isoform
T1 construct: purchased Invitrogen
Experimental: (§1) Because a prerequisite for PKC pathway involvement is binding to PKC, compounds were initially evaluated for PKC affinity in a cell-free competitive binding assay with tritiated phorbol dibutyrate ([^3H]-PDBu). Assays were performed with representative members of both the conventional (PKCα) and novel (PKCδ) PKC families. Subsequently, compounds were assayed for PKC activation in living cells using an isoform translocation assay.
To a 50 mL polypropylene tube was added Tris-HCl (pH 7.4, 1 M, 1 mL), KCl (1 M, 2 mL), CaCl2) (0.1 M, 30 μL), and bovine serum albumin (BSA, 40 mg, Sigma-Aldrich). This mixture was diluted to 20 mL with deionized H2O and mixed gently. The buffer was stored on ice until use.
For every two assays, 3.5 mg phosphatidylserine (Avanti Polar Lipids, porcine, 25 mg/mL CHCl3 solution) was concentrated by removing chloroform under a stream of nitrogen followed by reduced pressure. The solid PS was suspended as vesicles in freshly prepared PKC binding assay buffer (3.5 mL) by sonicating six times for 30 sec, with a 30 sec rest between sonications (Branson Sonifier 250, power=2, 50% duty cycle). The resulting milky cloudy mixture (1 mg/mL) was stored on ice until use.
Assay PKC was prepared by dissolving a 4 μg aliquot of the indicated recombinant human PKC isoform (Invitrogen) into 11.6 mL of PKC binding assay buffer (this amount is sufficient for two assays). The diluted PKC was stored on ice for immediate use.
^3H-PDBu (American Radiolabeled Chemicals, Inc.; 1 mCi/mL acetone solution; specific activity: 20 Ci/mmol) was diluted […] with DMSO. The resulting 500 nM stock solution was further diluted with DMSO to 30 nM.
Compound dilutions were prepared by serially diluting from a chosen “high” concentration by factors of 3 or 4.
To a polypropylene tube was added 3.3 mL of 1 mg/mL PS vesicles solution, 11 mL of PKC isoform solution, and 1.1 mL of 30 nM ^3H-PDBu solution were added. The resulting solution was vortexed to mix and stored on ice.
Materials: • Glass-fiber filters (Whatman GF/B) were prepared by soaking them in a solution of aqueous polyethyleneimine (10% by vol, 18 mL) in deionized water (600 mL) for ≥1 h. • 500 mL “rinsing buffer” of 20 mM Tris, pH 7.4 was cooled on ice for the duration of the incubation period and for the remainder of the assay.
Triplicate data points were obtained for each analog concentration. For each data point, 280 μL of “Master Mix” Solution and 20 μL of analog compound at a specified concentration were added to a polypropylene tube. […] Maximal ^3H-PDBu binding was assessed in triplicate by substitution of the analog compound with 20 μL DMSO. The solutions were vortexed to mix, incubated at 37° C. for 10 min, and incubated on ice for at least 30 min prior to filtration. Using a Brandel Harvester, the assay contents from each polypropylene tube were vacuum-filtered through polyethylenimine-soaked filters, washing with rinsing buffer (3×) and drying first under vacuum for 5 min and then under ambient conditions for ≥2 h. The resulting filters had circular perforations for each data point, which were removed with forceps and placed in a scintillation vial. Scintillation vials were filled with Bio-Safe II scintillation fluid (5 mL) and measured for radioactivity using a Beckman LS 6000SC scintillation counter. Counts per minute (cpm) were averaged for each triplicate dilution. The data were plotted—cpm vs. log(concentration)—using Prism® by GraphPad Software and an IC50 was determined using that program's built-in one-site competition least squares regression function. Ki values were calculated using the equation: Ki=IC50/(1+([3H−PDBu]/Kd)). The Kd of ^3H-PDBu for PKC isoforms was measured separately via saturation binding experiments under identical conditions.

PKCδ-GFP fusion protein = test: PKCδ-GFP translocation assay in living CHO-k1 cells (confocal microscopy); format: cell-based, Chinese hamster; settings: for concentration* (minimum effective concentration required to induce translocation of PKC-GFP to the membrane) / % Translocation: CHO-k1 cells; for % Translocation: maximum translocation of PKCδ-GFP to the plasma membrane at the concentration printed in the same cell, SUW212: only brief translocation observed; for PKC translocation behavior / dynamics of PKC activation: time course, FIG. 6 panels C-D
Experimental: as §1
Chinese hamster ovary factor K1 (CHO-k1, ATCC) cells were cultured in F-12 Kaighn's media (Hyclone, 10% fetal bovine serum, 1% penicillin/streptomycin added, referred to as F-12+/+ below) at 37° C. in an incubator (5% CO2). Cell cultures were maintained by splitting cells 1:3 when they reached ˜75-100% confluence (every 2-3 days) as follows:
1 mL of the cell suspension was then added to 9 mL of fresh F-12+/+ and the sample was sub-cultured until reaching confluence (˜2-3 days).
Cells were counted using a Countess II Automated Cell Counter (Fisher). The cell suspension was diluted to 240,000 cells/mL with fresh F-12+/+ and 2.5 mL of this diluted stock was added to one well in a 6-well plate. The cells were then cultured for 24 hours.
F-12+/+ was aspirated and cells were washed with F-12−/−. 2 mL of fresh F-12−/− was then added to each well, taking care not to disturb adherent cells. For each well of CHO-k1 cells, 12.5 μL Lipofectamine 2000 reagent (Invitrogen) was added to 250 μL Opti-MEM reduced serum media (Invitrogen) in a polypropylene tube and incubated for 20 minutes at RT. Meanwhile, for each well, 4 μg of PKCδ-GFP pDNA and 250 μL Opti-MEM reduced serum media was added to a separate polypropylene tube. 250 μL of the Lipofectamine 2000 suspension was added to the DNA suspension and the solution incubated for 30 minutes at RT. 500 μL of the Lipofectamine/DNA suspension was added to the respective wells of the 6-well plate. The cells were then incubated at 37° C. (5% CO2) for ˜24 hrs.
F-12+/+ was aspirated and cells were washed with F-12−/−. 2.4 mL of fresh F-12−/− was then added to each well, taking care not to disturb adherent cells. A 4 μg aliquot of PKCδ-GFP pDNA was added to PBS (pH 5.5, final volume 100 μL). 5.6 μL of DA 13:11 (2 mM stock in DMSO) was then added to the DNA solution, and the mixture was gently mixed (by flicking) for 20 seconds, at which point it was added directly to the respective wells of the 6-well plate. The cells were then incubated at 37° C. (5% C02) for ˜24 hrs.
After incubation, the media was aspirated and cells were washed with PBS (2.0 mL) and trypsinized (500 μL). The cell suspension was then diluted with 2.0 mL F-12+/+. 200 μL aliquots were added to 3 wells of a Lab-Tek II 4-well chambered coverglass slide (Fisher), producing 4 slides in total, each with three wells of cells. The cell suspension was directly diluted with 600 μL of additional F-12+/+. The resulting samples were incubated for ˜24 hrs. prior to imaging.
Fluorescent images were obtained using a Leica SP8 White Light Confocal microscope and the Leica AF software package. Prior to analysis, media was aspirated and 800 μL of PBS (Hyclone, without Ca^2+ or Mg^2+) supplemented with glucose (10 mM) was added to each well of the chambered coverglass slide. Bryostatin and bryostatin analogs were diluted to the appropriate concentration in 200 μL of 10 mM glucose in PBS. Cells were located for imaging and data was recorded for three wells in parallel, imaging at predetermined positions in each well using adaptive focus control. Cells were imaged at 30 second intervals following the addition of compound (set to t=0) for 20-40 minutes. Data were recorded at room temperature. Images were exported as .lif files and fluorescence intensity was analyzed using FIJI (NIH) software.

For CCCCCC#CC(=O)O[C@H]1/C(=C/C(=O)OC)C[C@H]2C[C@H]([C@@H](C)O)OC(=O)C[C@H](O)C[C@@H]3C[C@H](OC(C)=O)C(C)(C)[C@](O)(C[C@@H]4C[C@@](O)(CO)C[C@H](/C=C/C(C)(C)[C@]1(O)O2)O4)O3 [SUW203], the Ki (PKCα) was 1 nM, the “cytosolic PKC translocated” value (PKCδ-GFP fusion protein; 1000 nM) was ~50% and the “concentration* (minimum effective concentration required to induce translocation of PKC-GFP to the membrane)” value (shortened to “concentration*”) (PKCδ-GFP fusion protein) was 1000 nM. For the same molecule, the “% Translocation” value (PKCδ-GFP fusion protein) was 50%.
For CCC/C=C/C=C/C(=O)O[C@H]1/C(=C/C(=O)OC)C[C@H]2C[C@H]([C@@H](C)O)OC(=O)C[C@H](O)C[C@@H]3C[C@H](OC(C)=O)C(C)(C)[C@](O)(C[C@@H]4C[C@H](OC(C)=O)C[C@H](/C=C/C(C)(C)[C@]1(O)O2)O4)O3 [SUW206], the Ki (PKCα) was 1 nM, the “concentration*” value (PKCδ-GFP fusion protein) was 200 nM and the “% Translocation” value (PKCδ-GFP fusion protein) was 60%. For the same molecule, the “PKC translocation behavior / dynamics of PKC activation” value (“PKC translocation behavior / dynamics” below) (PKCδ-GFP fusion protein) was “almost identical behavior both to each other and to bryostatin 1”.
In the case of CCC/C=C/C=C/C(=O)O[C@H]1/C(=C/C(=O)OC)C[C@H]2C[C@H]([C@@H](C)O)OC(=O)C[C@H](O)C[C@@H]3C[C@H](OC(C)=O)C(C)(C)[C@](O)(C[C@@H]4C[C@@H](OC(C)=O)C[C@H](/C=C/C(C)(C)[C@]1(O)O2)O4)O3 [SUW207], the Ki (PKCα) is reported as 2 nM, the “concentration*” value (PKCδ-GFP fusion protein) is reported as 200 nM and the “% Translocation” value (PKCδ-GFP fusion protein) is reported as 60%. For the same molecule, the “PKC translocation behavior / dynamics” value (PKCδ-GFP fusion protein) was “almost identical behavior both to each other and to bryostatin 1”.
In the case of CCCC=CC=CC(=O)OC1C(=CC(=O)OC)CC2CC(C(C)O)OC(=O)CC(O)CC3CC(OC(C)=O)C(C)(C)C(O)(CC4CC(=CC(=O)OCC)CC(C=CC(C)(C)C1(O)O2)O4)O3 (centres unmarked) [SUW217], the Ki (PKCα) is reported as 9.2 nM, the “concentration*” value (PKCδ-GFP fusion protein) is reported as 200 nM and the “% Translocation” value (PKCδ-GFP fusion protein) is reported as 75%.
CCCC=CC=CC(=O)OC1C(=CC(=O)OC)CC2CC(C(C)O)OC(=O)CC(O)CC3CC(OC(C)=O)C(C)(C)C(O)(CC4CC(=CC(=O)OCC)CC(C=CC(C)(C)C1(O)O2)O4)O3 (centres unmarked) [SUW218] was tested, and the Ki (PKCα) was 7.1 nM, the “concentration*” value (PKCδ-GFP fusion protein) was 200 nM and the “% Translocation” value (PKCδ-GFP fusion protein) was 55%. The “PKC translocation behavior / dynamics” value (PKCδ-GFP fusion protein) was “more sustained linear activation dynamics”.
In the case of CCCCCCCC(=O)O[C@H]1/C(=C/C(=O)OC)C[C@H]2C[C@H]([C@@H](C)O)OC(=O)C[C@H](O)C[C@@H]3C[C@H](OC(C)=O)C(C)(C)[C@](O)(C[C@@H]4C[C@@H](C)C[C@H](/C=C/C(C)(C)[C@]1(O)O2)O4)O3 [SUW226], the Ki (PKCα) is reported as 5.8 nM, the “concentration*” value (PKCδ-GFP fusion protein) is reported as 200 nM and the “% Translocation” value (PKCδ-GFP fusion protein) is reported as 75%.
In the case of C=CCOC(=O)/C=C1/C[C@H]2C[C@]3(O)O[C@H](C[C@@H](O)CC(=O)O[C@@H]([C@@H](C)O)C[C@@H]4C/C(=C\C(=O)OC)[C@H](OC(=O)/C=C/C=C/CCC)[C@@](O)(O4)C(C)(C)/C=C/[C@@H](C1)O2)C[C@H](OC(C)=O)C3(C)C [SUW229], the Ki (PKCα) is reported as 1.8 nM, the “concentration*” value (PKCδ-GFP fusion protein) is reported as 200 nM and the “% Translocation” value (PKCδ-GFP fusion protein) is reported as 50%. The “PKC translocation behavior / dynamics” value (PKCδ-GFP fusion protein) was “more sustained linear activation dynamics”.
